Measured values reported in PMC10624635, “Design of allosteric sites into rotary motor V1-ATPase by restoring lost function of pseudo-active sites” (Nature Chemistry, 2023).

Molecular target: T1, wild-type V1-ATPase (Enterococcus hirae, UniProt Q08636+Q08637)
T1 construct: gene ntpA
Conditions: MgCl2; pH 6.5, 25 °C; ATP-regenerating system

Question: With Nc1ncnc2c1ncn2[C@@H]1O[C@H](COP(=O)(O)OP(=O)(O)OP(=O)(O)O)[C@@H](O)[C@H]1O [ATP] as the compound, how does the “coupled ATPase assay (NADH, pyruvate kinase / lactate dehydrogenase)” value read?
Answer: We also measured ATPase activity of the wild-type and designed V1
